Data set [1] relates to HeLa cells. Briefly: p62 levels after Beclin 1 or Bcl-2 siRNA knockdown. The data set is classed as cell-based. The note with it: cells with either Beclin 1 or Bcl-2 knockdown. An excerpt: (§1) We assessed whether the induction of autophagy by SW063058 and SW076956 requires Beclin 1 and Bcl-2 using siRNA to knockdown each protein, respectively, in HeLa, cells.
The target of the next data set is BH3 domain of Bax/Bcl-2 (Homo sapiens (Human), UniProt P10415). The data set is described as follows: Bax BH3 peptide/Bcl-2 AlphaLISA. The data set is classed as binding. The following applies: AlphaLISA with BH3 peptide. An excerpt: (§2) To assess selectivity for disruption of binding of the BH3 domain of Beclin 1 to Bcl-2 as compared to that of a pro-apoptotic Bcl-2 family member, we used an AlphaLISA with purified recombinant Bcl-2 and peptides spanning either the BH3 domain (amino acids 105-130) of Beclin 1 or the BH3 domain (amino acids 49-84) of Bax.
(§3) The Beclin 1 BH3 peptide consists of an N-terminally linked biotin, a YGGGGS linker, and […] (a.a. 105-130) derived from human Beclin 1. Bax BH3 peptide consists of an N-terminally linked biotin, a YGGGGS linker, and 36 amino acids (a.a. 49-84) derived from human Bax. Biotin-6xHis control peptide consists of an N-terminally linked biotin, a YGGGGS linker, and a 6xHis tag at C-terminus.
(§4) For dose-response AlphaLISA experiments, compounds were serially diluted (2-fold, 7 point) with DMSO and added to BB buffer containing purified recombinant proteins or biotinylated peptides at a final concentration range of 10 μM to 156 nM. Protein or peptide concentrations used in dose-response AlphaLISA experiments were as follows: Beclin1/Bcl-2—300 nM/60 nM; SUMO (internal control for Beclin 1/Bcl-2 AlphaLISA)—20 nM; Beclin 1 BH3/Bcl-2—1000 nM/60 nM; Bax BH3/Bcl-2—100 nM/20 nM; Biotin-6xHis (internal control for BH3/Bcl-2 AlphaLISA)—10

Data set [2] concerns HeLa cells stably expressing GFP-LC3. The data set is described as follows: GFP-LC3 puncta quantitation (autophagy). It counts as cell-based. The protocol:
We used well-established assays to assess their autophagic activity,^45 including (i) quantitation of GFP-LC3 puncta (which label autophagosomes) in the presence and absence of the lysosomal inhibitor, bafilomycin A1 (Baf A1), and (ii) western blot analysis of the conversion of LC3-I to the lipidated, autophagosomal-associated protein, LC3-II in the presence and absence of Baf A1. […] Shorter durations of lower concentrations of compounds (10 μM) also produced similar results. […] Thus, these compounds induce autophagic flux in HeLa cells.
as §1

For data set [3], the target named is Bim/Myc-Bcl-2 interaction (Homo sapiens (Human), UniProt P10415). The data set is described as follows: Co-immunoprecipitation of Bim with Myc-Bcl-2 in HeLa cells. The data set is classed as cell-based. The note with it: 12 h treatment. An excerpt: For the two compounds for which we had sufficient supply for large-scale tissue culture experiments (SW063058 and SW076956), we examined their effects on Beclin 1, Bax, and Bim co-immunoprecipitation with Bcl-2.

Data set [4] relates to HeLa cells that overexpress Bcl-2. Briefly: CellTiter-Glo cell death in Bcl-2 overexpressing cells. It counts as cell-based. For orientation: In ATP-based viability assays light output follows the ATP content of the culture.
In data set [5] the test system is HeLa cells. The data set is described as follows: CellTiter-Glo cytotoxicity assay. It counts as cell-based. The note with it: 20 μM.
The test system of another data set is PARP. The data set is described as follows: PARP cleavage (apoptosis). The data set is classed as cell-based. The note with it: 10 or 20 μM.
The target in data set [6] is T1, Beclin 1/Bcl-2 interaction (Homo sapiens (Human), UniProt P10415). The data set is described as follows: Beclin 1/Bcl-2 AlphaLISA assay (dose-response). It counts as binding. The note with it: positive control. An excerpt: We also developed a high-throughput Beclin 1/Bcl-2 AlphaLISA assay to directly measure the in vitro interaction between Beclin 1 and Bcl-2. AlphaLISA is a bead-based proximity assay that is capable of measuring protein-protein interaction in homogeneous solution.^41 Oxygen singlet molecules are generated by Alpha donor beads upon irradiation at 680 nm and travel to acceptor beads in proximity. […] Thus, a measurable Alpha luminescence signal requires chemical energy transfer between the donor and acceptor beads, and a pair of interacting molecules immobilized on the beads stabilizes bead association to produce measurable Alpha signals.
We used purified recombinant Beclin 1 and Bcl-2 proteins for AlphaLISA, which were optimized for enhanced solubility and expression. Human Beclin 1 was expressed as a fusion protein with StrepII-SUMO at the N-terminus, and three residues on the aromatic finger of Beclin 1 were mutated (F359D/F360D/W361D) to improve solubility and protein stability.^42 These mutations are in the BARA domain, which is far from the BH3 motif recognized by Bcl-2. A recombinant Bcl-2-binding deficient mutant of Beclin 1 (StrepII-SUMO-Beclin 1^ΔBcl-2BD) was used as a negative control. […] For a normalization control, we included a parallel AlphaLISA assay with purified SUMO protein (with an N-terminal StrepII tag and a C-terminal 6xHis tag). The purpose of a normalization control is to eliminate inner filter (false-positive) hits that reduce luminescence signal by interfering with the AlphaLISA assay in ways that are unrelated to the Beclin 1/Bcl-2 interaction. With the normalization control, the interaction of Beclin 1 and Bcl-2 was measured as follows:
All AlphaLISA assays were performed in triplicate in a 384-well format with BB buffer (phosphate-buffered saline supplemented with 0.5% BSA and 1 mM DTT). For the Beclin 1/Bcl-2 AlphaLISA, purified StrepII-SUMO-Beclin 1 was incubated with Bcl-2-6xHis proteins at 300 nM and 60 nM, respectively. For internal control AlphaLISA assays, StrepII-SUMO-6xHis protein (internal control) was used at 20 nM. […] Following the initial incubation, Strep-Tactin Alpha donor (AS106D) and anti-6xHis AlphaLISA acceptor beads (AL128M) were added to a final concentration of 40 μg/mL each and incubated at room temperature in the dark for an additional 1 h. All samples were evaluated in triplicate. Alpha signals were measured by an Envision plate reader (Perkin Elmer). Beclin 1/Bcl-2 Alpha signal was normalized with internal control Alpha signal. The normalized value represents the binding activity of Beclin 1 and Bcl-2. The percent activity of a compound was calculated as the following formula: […]
Protein or peptide concentrations used in dose-response AlphaLISA experiments were as follows: Beclin1/Bcl-2—300 nM/60 nM; SUMO (internal control for Beclin 1/Bcl-2 AlphaLISA)—20 nM; Beclin 1 BH3/Bcl-2—1000 nM/60 nM; Bax BH3/Bcl-2—100 nM/20 nM; Biotin-6xHis (internal control for BH3/Bcl-2 AlphaLISA)—10
Target sequence in this assay (P10415 1-218): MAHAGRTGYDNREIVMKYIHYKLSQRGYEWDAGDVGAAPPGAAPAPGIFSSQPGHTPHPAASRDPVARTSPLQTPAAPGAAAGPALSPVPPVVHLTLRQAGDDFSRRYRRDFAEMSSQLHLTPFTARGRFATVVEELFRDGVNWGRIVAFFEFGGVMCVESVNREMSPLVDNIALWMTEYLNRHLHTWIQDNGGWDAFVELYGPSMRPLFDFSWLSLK

Data set [7] has as its target T1, Beclin 1/Bcl-2 interaction. Briefly: Beclin 1/Bcl-2 split-luciferase assay in HeLa cells. It counts as cell-based.
Target sequence in this assay (P10415 whole entry): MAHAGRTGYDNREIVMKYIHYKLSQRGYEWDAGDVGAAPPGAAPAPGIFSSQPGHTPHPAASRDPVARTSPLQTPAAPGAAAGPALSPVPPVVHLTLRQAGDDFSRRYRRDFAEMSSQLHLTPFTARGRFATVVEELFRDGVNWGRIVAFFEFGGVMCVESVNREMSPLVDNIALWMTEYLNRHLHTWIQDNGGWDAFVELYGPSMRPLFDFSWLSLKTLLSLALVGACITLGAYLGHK
Source text: The split-luciferase approach relies on the reconstitution of two fragments of firefly luciferase, NLuc (amino acids 2-416) and CLuc (amino acids 398-550) expressed with proteins of interest as fusion partners. Upon the binding of interacting partners, two non-functional fragments of the luciferase are brought into proximity, forming an active luciferase protein. To measure Beclin 1/Bcl-2 interaction with the split-luciferase assay, we created HeLa cell lines expressing N-terminal NLuc-tagged Beclin 1 (NLuc-Beclin 1) and CLuc-tagged Bcl-2 (CLuc-Bcl-2) as split-luciferase reporters. […] Renilla luciferase was constitutively expressed as an internal control. The interaction of Beclin 1/Bcl-2 was measured as relative luminescence units (RLU), which was the calculated ratio of split-luciferase and Renilla luciferase signals: […]
DMSO (neutral control), ABT-737 (positive control), or the library compounds were added to a final concentration of 5 μM and incubated at 37° C. […] After 5 h of incubation, the medium was removed by centrifugation and the activity of Beclin 1/Bcl-2 split-luciferase reporters was measured with Dual-Glo® Luciferase Assay System (Promega). […] Ten microliters of 1× RL buffer (Stop & Glo Reagent) was then added to the sample, the sample was incubated at room temperature for 10 min, and the activity of Renilla luciferase was measured again. […]
Data set [8] deals with BH3 domain of Beclin 1/Bcl-2 (Homo sapiens (Human), UniProt P10415). Briefly: Beclin 1 BH3 peptide/Bcl-2 AlphaLISA. It counts as binding. The following applies: AlphaLISA with BH3 peptide.
Source text: as §2, §3, §4
In general terms: Bead proximity is the source of the signal in Alpha formats.

Structures are written as SMILES.

Chain of Bim/Myc-Bcl-2 interaction (P10415 whole entry): as above
Chain of BH3 domain of Bax/Bcl-2 (P10415 1-218): as the sequence (P10415 1-218) above
Chain of BH3 domain of Beclin 1/Bcl-2 (P10415 1-218): as above

In the case of `CN(C)CC[C@H](CSc1ccccc1)Nc1ccc(S(=O)(=O)NC(=O)c2ccc(N3CCN(Cc4ccccc4-c4ccc(Cl)cc4)CC3)cc2)cc1[N+](=O)[O-]` [ABT-737], the p62 levels result with HeLa cells [1] is “failed to alter p62 levels”. The “binding of the BH3 domain of Bax to Bcl-2” value on BH3 domain of Bax/Bcl-2 is listed as “nanomolar efficiency”. Besides, the “GFP-LC3 puncta in Bcl-2 knockdown cells” value in data set [2] (Bcl-2 siRNA) is listed as “no further increase in GFP-LC3 puncta”. Further, in [2] (Beclin 1 siRNA), the “GFP-LC3 puncta in Beclin 1 knockdown cells” value was “no further increase in GFP-LC3 puncta”. Moreover, in data set [3], the “Bim/Myc-Bcl-2 interaction (co-immunoprecipitation)” value is on record as “disrupt co-immunoprecipitation”. In addition, in data set [4], the “cell death in HeLa cells that overexpress Bcl-2” value is “more pronounced dose-dependent increase in cell death”. For the same molecule, the “cytotoxicity (CellTiter-Glo)” value with HeLa cells [5] is on record as “mild cytotoxicity”. For the same molecule, the PARP cleavage result with PARP is given as “dose-dependent increase in PARP cleavage”. For the same molecule, the “inhibition of Beclin 1/Bcl-2 Alpha signal” value in data set [6] was “inhibited in a dose-dependent manner”. Besides, the split-luciferase luminescence activity result in data set [7] was “inhibited in a dose-dependent manner”. The “binding of the BH3 domain of Beclin 1 to Bcl-2” value in data set [8] was “nanomolar efficiency”.

The record behind these values is patent publication US11591319B2, “Small molecule inducers of autophagy” (Board of Regents, The University of Texas System, priority 2018, dated 2023).
